Assay results reported in publication PMC12005787, “Synthetic Lethality of SHP2 and XIAP Suppresses Proliferation and Metastasis in KRAS‐mutant Nonsmall Cell Lung Cancer” (Advanced Science, 2025).

Columns and labels:
[1] = test system: NCI‐H2122 and A549 cells; assay: Cell scratch and cell migration assays; type: cell-based, human; conditions: 24 h
Procedure: supplies are listed in Supplementary Table S5. The relevant reagents for protein extraction from Escherichia coli are listed in Supplementary Table S6. Inhibitory effects of embelin on KRAS-mutant and wild-type cells are listed in Supplementary Table S7.
For the adherent cell viability assay, cells in the logarithmic growth phase were seeded in 96-well culture plates at a density of 5×103 well-1 and incubated overnight. Diluted compounds or DMSO were added, or specific treatments were incubated at 37 °C and 5% CO2 for 24 h or 48 h. Cell viability was determined using CCK-8 or CellLightTM Cell Viability Assay Kit, according to the manufacturer's protocol. The luminescence signals of the treated samples were normalized to those of the DMSO group.
For spherical cell viability assays, cells in the logarithmic growth phase were inoculated ata density of 4×10^3 well-1 into 96-well spherical cell microplates and incubated at 37 °C, 5% CO2 for 24 h or 48 h. Cell viability was measured using the CellTiter-Glo® Luminescent Cell Viability 3D Cell Viability Assay Kit, according to the manufacturer’s protocol. […]
Finally, the staining results were recorded using an inverted microscope. […]
NCI-H2122 and A549 cells were seeded in six-well plates. […] Finally, the scratch was photographed using an inverted microscope and the wound healing status was recorded. […]

[2] = test system: A549 and NCI‐H2122 cells; assay: Cell invasion assay; type: cell-based, human; conditions: embelin 1 and 2.5 µM; 24 h
Procedure: NCI-H2122 and A549 cells were pre-starved in serum-free medium for 24 h and resuspended in serum-free medium containing 5 mg mL-1 BSA. The cell suspension was added to Transwell chambers at a density of 5×105 mL-1, and RPMI-1640 or Ham F-12K medium containing 10% FBS was added to the bottom of the Transwell chambers.
Subsequently, drugs were added to the chambers and incubated at 37 °C for 48 h and cells were then fixed with 4% neutral formaldehyde for 40 min and stained with 0.1% crystal violet for 60 min. The chamber was washed with triple-distilled water, and images were collected using an inverted microscope. […]
Depending on the molecular weight of the proteins, different concentrations of sodium dodecyl-sulfate polyacrylamide gel electrophoresis (SDS-PAGE) separator gels were prepared for protein electrophoresis. Equal amounts of proteins were sampled and subjected to SDS-PAGE gel electrophoresis; at the end of electrophoresis, the proteins were transferred to nitrocellulose (NC) membranes. The NC membrane was blocked with 5% skim milk and covered with a specific primary antibody overnight at 4 °C, in which the primary antibody was diluted at a ratio of 1:500–1:5000. The NC membrane was […]

[3] = test system: NCI‐H2122 tumor; assay: NCI-H2122 subcutaneous transplantation tumor model; type: in vivo, BALB/c‐nu mouse; conditions: i.p., q2d
Procedure: NCI‐H2122 cells in the logarithmic growth phase were collected by mixing serum‐free RMPI‐1640 medium and Matrigel matrix gel, and injected subcutaneously into the right axilla of thymus‐less male BALB/c‐nu nude mice. Tumor volume was calculated according to V = ab^2/2 (where a and b are the long and short diameters of the tumor, respectively), and body weight was recorded every 3 days. When the tumor volume reached 100 mm^3, the mice were randomly divided into six groups (ten mice in each group): Control group (i.p, q2d), SHP099 (20 mg kg^−1, i.p, q2d) group, GDC‐0152 (20 mg kg^−1, i.p, q2d) group, SHP099 (20 mg kg^−1, i.p, q2d) + GDC‐ 0152 (20 mg kg^−1, i.p, q2d) co‐administration group, embelin (20 mg kg^−1, i.p, q2d) medium‐dose group and embelin (30 mg kg^−1, i.p, q2d) high‐dose group. When the tumor volume reached 1000 mm^3, all experimental mice were sacrificed, and tumor tissues and major organs, such as the heart, liver, spleen, lungs, and kidneys, were collected for further study.

Row | SMILES | effect on cell mobility / migration [1] | effect on invasive ability [2] | effect on body weight of the mice [3] | effect on weights of hearts, livers, lungs, and kidneys and structure of hearts and kidneys [3] | effect on tumor growth in vivo ([3]; embelin 20 and 30 mg kg^−1, GDC‐0152 20 mg kg^−1 + SHP099 20 mg kg^−1)
1 | CC1(N)CCN(c2cnc(-c3cccc(Cl)c3Cl)c(N)n2)CC1 [SHP099] | poor effect on cell mobility | significantly inhibited the invasive ability | little or no effect on the body weight | no significant effect | 
2 | CCCCCCCCCCCC1=C(O)C(=O)C=C(O)C1=O [Embelin] | potently inhibit the migration capabilities | significantly inhibited the invasive ability | little or no effect on the body weight | no significant effect | significantly inhibited the tumor growth rate
